Data set [1] addresses mGluR5 (Homo sapiens, UniProt P41594). Particulars: cited from earlier work.
Data set [2] has as its target orthosteric glutamate site of mGluR5 (Homo sapiens, UniProt P41594). Particulars: cited from earlier work.
Data set [3] has as its target T1, mGluR5 (Rattus norvegicus, UniProt P31424).
T1 construct: a functional expression of mGluR5 receptors; endogenous in cells; host or cells: primary cortical astrocytes from Sprague-Dawley rat embryos (15 days), treated with bFGF and EGF
The data set is described as follows: mGluR5 assay on rat cultured cortical astrocytes (Ca2+ mobilization, FLIPR). Format: cell-based. Particulars: for increase of 1 μM glutamate-induced Ca2+ mobilization: 3 μM compound, 1 μM glutamate (EC20), rat cultured astrocytes, FIG. 1; for agonistic activity in the absence of glutamate: no glutamate, compared to buffer value. The method, then: For subsequent seeding, the FCS supplementation was reduced to 10%. After 12 days, cells were subplated by trypsinisation onto poly-D-lysine precoated 384-well plates at a density of 20.000 cells per well in culture buffer supplemented with […] βFGF (basic fibroblast growth factor) (Invitrogen, Basel, Switzerland) and 10 ng/ml EGF (epidermal growth factor) (Invitrogen, Basel, Switzerland).
After 60 min of loading with 4 uM Fluo-4 (TefLabs, Austin, Tex.), the cells were washed three times with 50 μl of PBS Buffer and resuspended in 45 μl of Assay Buffer. The plates were then transferred to a Fluorometric Imaging Plate Reader (FLIPR, Molecular Devices, Sunnyvale, Calif.) for the assessment of intracellular calcium flux. […] The final DMSO concentration in the assay was 0.3%. In each experiment, fluorescence was then monitored as a function of time for 3 minutes and the data analyzed using Microsoft Excel and GraphPad Prism. Each data point was also measured two times.
The concentration-response curves of representative compounds of the present invention in the presence of EC20 of glutamate were generated using the Prism GraphPad program (Graph Pad Software Inc, San Diego, USA).
For orientation: Calcium flux is commonly read through the fluorescence of an indicator in the cells.

T1 sequence (P31424 21-1203): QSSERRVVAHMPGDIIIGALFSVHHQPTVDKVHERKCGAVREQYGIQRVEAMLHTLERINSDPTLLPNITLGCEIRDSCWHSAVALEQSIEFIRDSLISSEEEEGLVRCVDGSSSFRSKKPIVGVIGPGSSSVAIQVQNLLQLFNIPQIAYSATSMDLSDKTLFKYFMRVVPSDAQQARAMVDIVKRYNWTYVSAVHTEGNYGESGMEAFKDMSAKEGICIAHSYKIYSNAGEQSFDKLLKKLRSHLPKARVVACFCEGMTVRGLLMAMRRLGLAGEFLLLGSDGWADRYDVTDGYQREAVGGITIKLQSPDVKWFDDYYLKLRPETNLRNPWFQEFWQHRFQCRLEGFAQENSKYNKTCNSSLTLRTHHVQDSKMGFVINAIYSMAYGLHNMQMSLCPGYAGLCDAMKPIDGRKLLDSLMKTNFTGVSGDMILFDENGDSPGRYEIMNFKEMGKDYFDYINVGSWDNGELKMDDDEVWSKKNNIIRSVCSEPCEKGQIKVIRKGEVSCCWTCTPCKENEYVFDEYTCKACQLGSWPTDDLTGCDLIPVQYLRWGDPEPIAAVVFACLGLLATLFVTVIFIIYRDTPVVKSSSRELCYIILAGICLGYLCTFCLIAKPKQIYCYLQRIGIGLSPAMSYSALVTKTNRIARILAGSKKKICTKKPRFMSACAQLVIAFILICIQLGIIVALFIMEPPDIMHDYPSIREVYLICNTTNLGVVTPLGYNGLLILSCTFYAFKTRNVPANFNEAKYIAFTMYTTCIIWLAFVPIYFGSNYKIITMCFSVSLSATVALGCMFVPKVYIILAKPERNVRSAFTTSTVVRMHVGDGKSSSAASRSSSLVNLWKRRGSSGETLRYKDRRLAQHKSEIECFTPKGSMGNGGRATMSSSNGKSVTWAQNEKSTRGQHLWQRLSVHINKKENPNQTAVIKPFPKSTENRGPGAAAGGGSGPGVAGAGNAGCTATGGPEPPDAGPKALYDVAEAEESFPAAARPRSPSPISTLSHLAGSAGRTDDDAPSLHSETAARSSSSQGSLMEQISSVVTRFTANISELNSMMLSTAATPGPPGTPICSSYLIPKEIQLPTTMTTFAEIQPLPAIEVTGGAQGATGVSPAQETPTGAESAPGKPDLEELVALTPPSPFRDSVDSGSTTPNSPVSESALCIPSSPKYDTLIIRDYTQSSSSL
mGluR5 (Homo sapiens, UniProt P41594), sequence (P41594 21-1212): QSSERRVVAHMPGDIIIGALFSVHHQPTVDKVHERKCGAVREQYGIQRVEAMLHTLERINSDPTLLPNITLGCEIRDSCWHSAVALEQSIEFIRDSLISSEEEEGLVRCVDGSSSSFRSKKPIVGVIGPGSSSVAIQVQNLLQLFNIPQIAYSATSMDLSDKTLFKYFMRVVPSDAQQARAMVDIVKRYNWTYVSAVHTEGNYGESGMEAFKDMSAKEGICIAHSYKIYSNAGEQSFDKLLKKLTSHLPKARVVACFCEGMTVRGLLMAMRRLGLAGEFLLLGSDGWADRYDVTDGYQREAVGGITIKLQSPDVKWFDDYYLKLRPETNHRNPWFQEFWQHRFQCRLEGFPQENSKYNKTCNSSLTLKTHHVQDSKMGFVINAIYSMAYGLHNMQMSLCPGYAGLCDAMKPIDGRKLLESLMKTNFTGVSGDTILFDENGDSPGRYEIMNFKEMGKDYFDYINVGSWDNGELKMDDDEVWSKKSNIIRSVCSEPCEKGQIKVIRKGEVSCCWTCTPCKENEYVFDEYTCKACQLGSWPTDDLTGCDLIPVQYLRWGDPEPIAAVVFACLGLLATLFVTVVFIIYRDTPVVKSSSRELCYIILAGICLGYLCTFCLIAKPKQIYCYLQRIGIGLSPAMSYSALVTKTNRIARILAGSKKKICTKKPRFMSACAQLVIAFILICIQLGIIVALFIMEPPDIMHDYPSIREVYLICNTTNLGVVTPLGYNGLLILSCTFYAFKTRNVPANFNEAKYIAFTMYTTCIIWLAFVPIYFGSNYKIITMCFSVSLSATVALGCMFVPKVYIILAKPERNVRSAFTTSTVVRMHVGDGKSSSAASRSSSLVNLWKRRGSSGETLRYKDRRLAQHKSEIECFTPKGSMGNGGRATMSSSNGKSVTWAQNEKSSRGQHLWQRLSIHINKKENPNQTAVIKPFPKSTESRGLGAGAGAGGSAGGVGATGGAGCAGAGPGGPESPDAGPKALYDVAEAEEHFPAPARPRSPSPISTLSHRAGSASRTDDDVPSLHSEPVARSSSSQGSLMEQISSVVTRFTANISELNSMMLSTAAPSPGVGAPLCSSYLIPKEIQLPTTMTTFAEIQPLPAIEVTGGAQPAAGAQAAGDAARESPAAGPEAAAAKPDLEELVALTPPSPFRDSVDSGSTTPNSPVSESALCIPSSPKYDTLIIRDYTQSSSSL
orthosteric glutamate site of mGluR5, sequence (P41594 21-1212): as above

On to `Fc1cccc(C=NN=Cc2cccc(F)c2)c1` [DFB, 3,3′-Difluorobenzaldazine], for which the “in vitro potency as mGluR5 positive allosteric modulator” value at mGluR5 [1] was “low in vitro potency”. Also, in data set [2], the “inhibition of the binding of [3H]-quisqualate to the orthosteric glutamate site” value is “not able to inhibit”. As for `O=C(c1ccc(F)cc1)N1CCC[C@H](c2nc(-c3ccccc3F)no2)C1` [Example 55, (4-Fluoro-phenyl)-{(S)-3-[3-(2-fluoro-phenyl)-[1,2,4]oxadiazol-5-yl]-piperidin-1-yl}-methanone], on mGluR5 [3], the “increase of 1 μM glutamate-induced Ca2+ mobilization” value was “increase” and the “agonistic activity in the absence of glutamate” value is recorded as “no statistically significant agonistic activity”.

With `O=C(c1ccc(F)cc1)N1CCC[C@H](c2nc(-c3ccccn3)no2)C1` [Example 56, (4-Fluoro-phenyl)-[(S)-3-(3-pyridin-2-yl-[1,2,4]oxadiazol-5-yl)-piperidin-1-yl]-methanone], at mGluR5 [3], the “increase of 1 μM glutamate-induced Ca2+ mobilization” value is “increase” and the “agonistic activity in the absence of glutamate” value is given as “no statistically significant agonistic activity”. Take `O=C(c1nc2ccccc2s1)N1CCC[C@H](c2nc(-c3ccc(F)cc3)no2)C1` [Example 19, Benzothiazol-2-yl-{(S)-3-[3-(4-fluoro-phenyl)-[1,2,4]oxadiazol-5-yl]-piperidin-1-yl}-methanone]: the melting point (commonly the temperature of the solid-liquid transition) is 130 to 131 °C.

`N#Cc1ccc(C(=O)N2CCC[C@H](c3nc(-c4ccc(F)cc4)no3)C2)cc1` [Example 23, 4-{(S)-3-[3-(4-Fluoro-phenyl)-[1,2,4]oxadiazol-5-yl]-piperidine-1-carbonyl}-benzonitrile] yielded a melting point of 129 to 130 °C.

The record behind these values is patent US8163775B2, “Allosteric modulators of metabotropic glutamate receptors” (Addex Pharma SA, priority 2003, dated 2012).
